Where two headings read alike, the source gives them in different places.
Legend:
CaSR [1] = target: T1, CaSR (Homo sapiens, UniProt P41180); test: [Ca^2+]i signaling (Fura-2) evoked by [Mg^2+]o/[Ca^2+]o in CaSR-expressing HEK293 cells (5001 cell population assay); assay type: cell-based; design: expressed in transfected cells
T1 sequence (P41180 20-1078): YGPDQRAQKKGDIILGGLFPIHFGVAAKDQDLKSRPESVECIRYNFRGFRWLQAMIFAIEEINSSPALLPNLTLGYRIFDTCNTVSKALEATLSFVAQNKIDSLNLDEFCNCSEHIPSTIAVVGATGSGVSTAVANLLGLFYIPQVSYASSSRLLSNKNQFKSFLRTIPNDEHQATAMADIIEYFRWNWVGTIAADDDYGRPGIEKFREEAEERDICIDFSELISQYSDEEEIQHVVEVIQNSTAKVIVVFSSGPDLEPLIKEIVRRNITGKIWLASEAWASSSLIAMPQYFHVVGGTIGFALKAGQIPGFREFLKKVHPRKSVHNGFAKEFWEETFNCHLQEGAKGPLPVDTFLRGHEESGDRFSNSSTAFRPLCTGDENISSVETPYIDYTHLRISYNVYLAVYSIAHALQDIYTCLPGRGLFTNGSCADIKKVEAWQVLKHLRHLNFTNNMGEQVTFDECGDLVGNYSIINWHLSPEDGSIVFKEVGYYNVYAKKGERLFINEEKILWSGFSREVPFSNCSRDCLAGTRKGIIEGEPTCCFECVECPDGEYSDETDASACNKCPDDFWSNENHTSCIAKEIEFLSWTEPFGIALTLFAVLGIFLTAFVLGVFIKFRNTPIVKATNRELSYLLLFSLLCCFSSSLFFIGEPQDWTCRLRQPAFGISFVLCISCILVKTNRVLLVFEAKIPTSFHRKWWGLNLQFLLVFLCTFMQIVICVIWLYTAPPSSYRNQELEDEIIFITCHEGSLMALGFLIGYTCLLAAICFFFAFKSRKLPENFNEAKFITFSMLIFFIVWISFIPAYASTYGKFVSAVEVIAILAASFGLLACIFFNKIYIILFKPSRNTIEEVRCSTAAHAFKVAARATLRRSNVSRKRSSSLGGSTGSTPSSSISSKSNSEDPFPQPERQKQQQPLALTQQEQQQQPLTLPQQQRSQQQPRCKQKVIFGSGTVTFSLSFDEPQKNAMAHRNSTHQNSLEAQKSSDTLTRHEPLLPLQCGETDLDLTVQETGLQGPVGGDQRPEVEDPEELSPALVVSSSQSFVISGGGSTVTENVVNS
Method: Measurement of intracellular free Ca^2+ was assessed as described by Huang, et al^33. Briefly, wild type CaSR, or its mutants, were transiently transfected into HEK293 cells grown on coverslips and cultured for 48 h. The cells were subsequently loaded for 15 min using 2 μM Fura-2 AM in 2 mL physiological saline buffer (10 mM HEPES, 140 mM NaCl, 5 mM KCl, 1.0 mM MgCl2 and pH 7.4). The coverslips were mounted in a bath chamber on the stage of a Leica DM6000 fluorescence microscope. The cells were alternately illuminated with 340 or 380 nm light, and the fluorescence at an emission wavelength 510 nm was recorded in real time as the [Ca^2+]o and/or [Mg^2+]o was increased in a stepwise manner in the presence or absence of 0.25 mM TNCA in buffer (10 mM HEPES, 155 mM NaCl, 5 mM KCl, 2 mM NaH2PO4, 0.5 mM MgCl2 and pH 7.4). The ratio of the emitted fluorescence intensities resulting from excitation at both wavelengths was utilized as a surrogate for changes in [Ca^2+]i and was further plotted and analyzed as a function of [Ca^2+]o. All experiments were performed at room temperature. The signals from 20 to 100 single cells were recorded for each measurement. Oscillations were identified as three successive fluctuations in [Ca^2+]i after the initial peak. Determination of the Effect of TNCA on Mg^2+-Evoked [Ca^2+]i Signaling by Stimulation of CaSR in Cell Populations.
Changes in the intracellular Ca^2+ concentration [Ca^2+ ]i elicited by extracellular Mg^2+ ([Mg^2+]o) in a population of cells were measured by fluorimetry as described previously^33. A cell line stably expressing CaSR (designated the “5001 cell line”) was seeded on 13.5×20-mm coverslips and cultured in DMEM. After reaching 95% confluence, cells were washed three times using loading buffer (20 mM HEPES [pH 7.4], 125 mM NaCl, 5 mM KCl, 1.25 mM CaCl2, 1 mM MgCl2, 1 mM NaH2PO4, 1% glucose, and 1% BSA) and subsequently incubated with 4 μM Fura-2 and 4 μM pluronic F127 for 20 minutes at 37° C. to enable sufficient dye loading in the same buffer. After removing the excess Fura-2, coverslips with cells were diagonally positioned in a quartz cuvette filled with 3 ml of experimental buffer (125 mM NaCl, 5 mM KCl, 0.5 mM CaCl2, 0.5 mM MgCl2, 1% glucose, and 1% BSA). Measurements of Fura-2 fluorescence at 510 nm when excited at 340 or 380 nm were performed on a QM1 fluorescence spectrophotometer (PTI). The emission ratio of 340/380 was calculated and used to reflect the changes in [Ca^2+]i when different concentrations of [Mg^2+]o were applied to the cells.
To examine the co-activation of CaSR by TNCA and [Mg^2+]o or [Ca^2+]o, different concentrations of TNCA were placed in the experimental buffer with a fixed concentration of [Ca^2+]o and varying concentrations of [Mg^2+]o, or vice versa, as described in the results section. The effects of other ligands were analyzed by comparing the changes in [Ca^2+ ]i produced by [Mg^2+]o alone or by co-application of Mg^2+ with other ligands. The EC50 of [Mg^2+]o obtained during incubation with various concentrations of TNCA is compared with that observed in the presence of [Mg^2+]o alone. The EC50 changes were plotted as a function of TNCA concentration and the curve was fit to the Hill equation. The activation of CaSR by the TNCA, functioning as a co-agonist with [Mg^2+]o, is indicated by the increasingly leftward-shifted EC50 for [Mg^2+]o as the concentration of TNCA increases (FIG. 6).

CaSR [2] = target: T1, CaSR; test: ERK1/2 phosphorylation in 5001 cells stably expressing hCaSR; assay type: cell-based; design: expressed in transfected cells
Method: The 5001 cell line stably expressing hCaSR was starved in serum-free DMEM medium supplemented with 0.2% (w/v) BSA overnight, followed by washing 3-times with HBSS and a subsequent 10 minute HBSS incubation after 12 hours. To induce ERK1/2 phosphorylation, varying concentrations of [Mg^2+]o (0-50 mM) or [Ca^2+]o (0-30 mM) with or without 0.5 mM TNCA were added to cells and incubated for 10 minutes at 37° C. The cells were then lysed with Pierce RIPA buffer (ThermoFisher Scientific). Total protein concentration was measured using the BioRad assay. Lysates containing 100 μg of total protein were loaded onto 4-20% gradient SDS-PAGE gels for separation. After electrophoresis, proteins on the gel were transferred to nitrocellulose membranes and further analyzed by western blotting. Anti-phospho-p44/42 ERK (1:1000 dilution) and anti-p44/42 (1:2000) polyclonal antibodies were utilized as probes to detect the phosphorylated ERK1/2 and total ERK1/2 respectively. A chemiluminescent detection method (AP Conjugate Substrate Kit, Bio-Rad) was applied to detect phosphor-ERK1/2 and total-ERK1/2. The respective bands on western blots were evaluated by densitometry. The EC50 of [Mg^2+]o- or [Ca^2+]o-dependent responses were obtained by fitting the [Mg^2+]o or [Ca^2+]o concentration-response curves with the Hill equation (Eq.1).

ECD of CaSR = target: T2, ECD of CaSR (Homo sapiens, UniProt P41180); test: Ca2+ binding to the ECD by Trp fluorescence signal change; conditions: for Kd: read-out: Kd, 2-phase Hill equation
T2 construct: made in house; host or cells: HEK293S (GnTI-) suspension culture, secreted
T2 sequence (P41180 20-612): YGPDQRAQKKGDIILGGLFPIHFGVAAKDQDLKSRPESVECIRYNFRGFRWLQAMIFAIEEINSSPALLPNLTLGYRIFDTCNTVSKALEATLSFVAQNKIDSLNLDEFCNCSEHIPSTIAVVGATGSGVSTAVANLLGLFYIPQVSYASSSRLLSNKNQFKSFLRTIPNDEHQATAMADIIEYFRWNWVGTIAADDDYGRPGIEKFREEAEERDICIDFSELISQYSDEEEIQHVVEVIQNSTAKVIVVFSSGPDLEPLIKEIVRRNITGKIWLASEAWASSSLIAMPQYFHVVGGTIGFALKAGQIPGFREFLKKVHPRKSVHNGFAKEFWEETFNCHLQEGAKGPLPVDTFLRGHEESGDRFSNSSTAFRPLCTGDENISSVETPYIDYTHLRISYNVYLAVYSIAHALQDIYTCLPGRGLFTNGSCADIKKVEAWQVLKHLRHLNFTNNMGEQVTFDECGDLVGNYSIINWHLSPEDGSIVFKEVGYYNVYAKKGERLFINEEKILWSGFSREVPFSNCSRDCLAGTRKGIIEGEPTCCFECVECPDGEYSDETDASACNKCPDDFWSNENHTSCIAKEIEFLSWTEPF

CaSR [3] = target: T3, CaSR (Bos taurus, UniProt P35384); conditions: X. laevis oocytes; cited from earlier work
T3 construct: host or cells: X. laevis oocytes
T3 sequence (P35384 20-1085): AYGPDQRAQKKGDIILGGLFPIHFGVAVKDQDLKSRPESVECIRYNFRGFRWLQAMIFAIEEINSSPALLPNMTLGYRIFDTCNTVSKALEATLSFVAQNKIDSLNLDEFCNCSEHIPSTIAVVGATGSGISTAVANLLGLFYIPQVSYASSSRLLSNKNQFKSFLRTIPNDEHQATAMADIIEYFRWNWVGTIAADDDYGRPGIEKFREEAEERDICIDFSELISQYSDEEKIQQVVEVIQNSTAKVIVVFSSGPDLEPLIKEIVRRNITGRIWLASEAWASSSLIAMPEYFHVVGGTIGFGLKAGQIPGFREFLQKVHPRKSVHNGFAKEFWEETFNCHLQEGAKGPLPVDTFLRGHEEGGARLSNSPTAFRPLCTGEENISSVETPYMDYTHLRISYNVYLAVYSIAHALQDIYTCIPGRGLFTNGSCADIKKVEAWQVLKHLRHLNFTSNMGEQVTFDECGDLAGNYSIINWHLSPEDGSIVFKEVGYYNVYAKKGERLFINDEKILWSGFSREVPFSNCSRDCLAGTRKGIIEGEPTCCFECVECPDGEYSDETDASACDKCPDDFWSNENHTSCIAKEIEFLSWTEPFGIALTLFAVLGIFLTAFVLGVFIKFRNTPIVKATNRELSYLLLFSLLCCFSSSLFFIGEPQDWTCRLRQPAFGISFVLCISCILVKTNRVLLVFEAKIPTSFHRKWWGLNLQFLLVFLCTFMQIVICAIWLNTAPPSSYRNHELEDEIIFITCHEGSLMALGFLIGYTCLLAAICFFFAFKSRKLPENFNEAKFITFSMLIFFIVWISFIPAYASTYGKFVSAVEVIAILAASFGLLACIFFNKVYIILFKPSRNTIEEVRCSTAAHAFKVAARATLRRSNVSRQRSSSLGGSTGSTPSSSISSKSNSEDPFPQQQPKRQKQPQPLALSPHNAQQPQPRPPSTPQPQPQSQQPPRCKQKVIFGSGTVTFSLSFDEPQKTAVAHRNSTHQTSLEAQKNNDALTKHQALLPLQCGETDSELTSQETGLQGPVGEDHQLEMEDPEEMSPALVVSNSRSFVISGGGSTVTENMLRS

CaSR [4] = target: T1, CaSR; design: host or cells: HEK cells, transient; conditions: HEK cells, in the presence of 150 mM NaCl; read-out: EC50 for intracellular calcium responses; cited from earlier work

Compound | co-agonism with [Mg^2+]o in activating [Ca^2+]i oscillations (CaSR [1]) | potency relative to Phe in reducing the EC50 for [Mg^2+]o or [Ca^2+]o activation of [Ca^2+]i signaling (CaSR [1]; WT and mutant CaSRs) | EC50 (CaSR [1]; determined indirectly through the EC50 change of [Mg^2+]o at different TNCA concentrations, 0.5 mM [Ca^2+]o, read-out: apparent EC50 of TNCA as co-agonist) [mM] | activation of the receptor by the exogenous compound alone (CaSR [1]; without metal agonist) | co-agonism with [Mg^2+]o in activating ERK1/2 phosphorylation (CaSR [2]) | Hill number, 2-phase Hill equation (ECD of CaSR; first phase) | Kd (ECD of CaSR; first phase) [mM] | Hill number, 2-phase Hill equation (ECD of CaSR; second phase) | Kd (ECD of CaSR; second phase) [mM] | EC50 (CaSR [3]) [mM] | EC50 (CaSR [4]) [mM]
O=C(O)[C@@H]1Cc2c([nH]c3ccccc23)CN1 [TNCA, L-1,2,3,4-tetrahydronorharman-3-carboxylic acid] | strong co-agonist | greater than 1000 fold | ≥ 0.002 | cannot activate the receptor | strong co-agonist | – | – | – | – | – | –
[Ca+2] [Ca^2+, calcium] | – | – | – | – | – | 1.1 | 0.9 | 3.8 | 10 | 3 | 3 to 5
